The record followed here is ChEMBL document CHEMBL3098062, “Influenza RNA-Dependent RNA Polymerase (RdRp) Inhibitors: Potential New Therapy for Influenza Treatment” (ACS Med Chem Lett, 2013).

Some results are limits rather than exact numbers.

One assay has as its system Influenza B virus. Briefly: Antiviral activity against Influenza B virus Lee/40 infected in human bronchial/tracheal epithelial cells after 5 days by fluorescence assay. The class given is functional, organism-based. To be noted: B/Lee/1940, Epithelial cell, Trachea, 120 h.
The test system of the next assay is Influenza A virus. Briefly: Antiviral activity against Influenza A virus PC/1/73 infected in human bronchial/tracheal epithelial cells after 5 days by fluorescence assay. The following applies: PC/1/73, Epithelial cell, Trachea, 120 h. Type of assay: functional, organism-based.

Turning to `Nc1nc(N)c2ncc([C@@H]3O[C@H](CO)[C@@H](O)[C@H]3F)n2n1`, the EC50 came out at 51 µM in the assay with Influenza B virus and 21 µM in the assay on Influenza A virus.

For the molecule `CCOc1nc(N)nn2c([C@@H]3O[C@H](CO)[C@@H](O)[C@H]3F)cnc12`, the EC50 in the assay on Influenza B virus and in the assay on Influenza A virus was above 200 µM each time.

Regarding `Nc1nc(F)nn2c([C@@H]3O[C@H](CO)[C@@H](O)[C@H]3F)cnc12`, the EC50 with Influenza B virus and with Influenza A virus was above 100 µM in each case.

On to `Nc1ncnn2c([C@@H]3O[C@H](CO)[C@@H](O)[C@H]3F)cnc12`, for which the EC50 in the assay with Influenza B virus and in the assay on Influenza A virus was 0.9 µM throughout.

Usually EC50 stands for the concentration giving half of the maximal effect. A low value points to higher potency in that assay.
